# In PubChem BioAssay (NCI):
#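 96-well plates; 48 h exposure; 5 concentrations. Endpoints by linear interpolation between flanking doses. Not reached: highest tested concentration assigned. Definition used: TGI = concentration required for complete inhibition of growth.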
# Tests used:
# Assay in all cases: growth of human tumour cells (NCI), 48 h
# [1] = system: 786-0 renal
# [2] = system: A498 renal
# [3] = system: A549 NSCLC
# [4] = system: ACHN renal
# [5] = system: BT-549 breast
# [6] = system: CAKI-1 renal
# [7] = system: CCRF-CEM leukemia
# [8] = system: COLO 205 colon
# [9] = system: DU-145 prostate
# [10] = system: EKVX NSCLC
# [11] = system: HCC-2998 colon
# [12] = system: HCT-116 colon
# [13] = system: HCT-15 colon
# [14] = system: HL-60(TB) leukemia
# [15] = system: HOP-62 NSCLC
# [16] = system: HOP-92 NSCLC
# [17] = system: HS 578T breast
# [18] = system: HT29 colon
# [19] = system: IGROV1 ovarian
# [20] = system: K-562 leukemia
# [21] = system: KM12 colon
# [22] = system: LOX IMVI melanoma
# [23] = system: M14 melanoma
# [24] = system: MALME-3M melanoma
# [25] = system: MCF7 breast
# [26] = system: MDA-MB-231 breast
# [27] = system: MDA-MB-435
# [28] = system: MDA-N
# [29] = system: MOLT-4 leukemia
# [30] = system: NCI-H226 lung
# [31] = system: NCI-H23 lung
# [32] = system: NCI-H460 lung
# [33] = system: NCI-H522 lung
# [34] = system: NCI/ADR-RES ovarian
# [35] = system: OVCAR-3 ovarian
# [36] = system: OVCAR-4 ovarian
# [37] = system: OVCAR-5 ovarian
# [38] = system: OVCAR-8 ovarian
# [39] = system: PC-3 prostate
# [40] = system: RPMI-8226 leukemia
# [41] = system: RXF 393 renal
# [42] = system: SF-268 CNS
# [43] = system: SF-295 CNS
# [44] = system: SF-539 CNS
# [45] = system: SK-MEL-2 melanoma
# [46] = system: SK-MEL-28 melanoma
# [47] = system: SK-MEL-5 melanoma
# [48] = system: SK-OV-3 ovarian
# [49] = system: SN12C renal
# [50] = system: SNB-19 CNS
# [51] = system: SNB-75 CNS
# [52] = system: SR leukemia
# [53] = system: SW-620 colon
# [54] = system: T-47D breast
# [55] = system: TK-10 renal
# [56] = system: U251 CNS
# [57] = system: UACC-257 melanoma
# [58] = system: UACC-62 melanoma
# [59] = system: UO-31 renal
smiles,measurement,setting,value
O=C1C[C@H](Sc2ccccc2)C2(OCCO2)[C@H]2ON3CCC[C@@H]3[C@@H]12,TGI,[1],4.98 µM
same,TGI,[2],27.9 µM
same,TGI,[3],13 µM
same,TGI,[4],5.55 µM
same,TGI,[5],16.2 µM
same,TGI,[6],7.13 µM
same,TGI,[7],0.829 µM
same,TGI,[8],5.31 µM
same,TGI,[9],6.95 µM
same,TGI,[10],9.64 µM
same,TGI,[11],6.69 µM
same,TGI,[12],2.88 µM
same,TGI,[13],4.42 µM
same,TGI,[14],3.67 µM
same,TGI,[15],5.29 µM
same,TGI,[16],3.92 µM
same,TGI,[17],> 39 µM
same,TGI,[18],2.81 µM
same,TGI,[19],2.46 µM
same,TGI,[20],8.11 µM
same,TGI,[21],2.87 µM
same,TGI,[22],3.05 µM
same,TGI,[23],7.19 µM
same,TGI,[24],4.01 µM
same,TGI,[25],3.16 µM
same,TGI,[26],10.9 µM
same,TGI,[27],3.9 µM
same,TGI,[28],13.3 µM
same,TGI,[29],1.85 µM
same,TGI,[30],26.7 µM
same,TGI,[31],7.12 µM
same,TGI,[32],9.55 µM
same,TGI,[33],2.08 µM
same,TGI,[34],30.8 µM
same,TGI,[35],2.75 µM
same,TGI,[36],9.14 µM
same,TGI,[37],7.8 µM
same,TGI,[38],11.5 µM
same,TGI,[39],13 µM
same,TGI,[40],1.33 µM
same,TGI,[41],11 µM
same,TGI,[42],7.25 µM
same,TGI,[43],14.4 µM
same,TGI,[44],7.9 µM
same,TGI,[45],13.8 µM
same,TGI,[46],7.55 µM
same,TGI,[47],21.6 µM
same,TGI,[48],11.4 µM
same,TGI,[49],6.29 µM
same,TGI,[50],19.6 µM
same,TGI,[51],11.5 µM
same,TGI,[52],1.95 µM
same,TGI,[53],5.82 µM
same,TGI,[54],7.17 µM
same,TGI,[55],13.3 µM
same,TGI,[56],6.66 µM
same,TGI,[57],8.71 µM
same,TGI,[58],3.77 µM
same,TGI,[59],3.61 µM
O=C(CC(=O)Nc1ccccc1Cl)NNC(c1cc(N=Nc2ccc(Br)cc2)ccc1O)P(O)O (stereo not given),TGI,[1],> 10 µM
same,TGI,[2],7.87 µM
same,TGI,[3],> 10 µM
same,TGI,[4],> 10 µM
same,TGI,[5],> 10 µM
same,TGI,[6],6.71 µM
same,TGI,[7],9.58 µM
same,TGI,[8],> 10 µM
same,TGI,[9],> 10 µM
same,TGI,[10],> 10 µM
same,TGI,[11],> 10 µM
same,TGI,[12],0.964 µM
same,TGI,[13],> 10 µM
same,TGI,[14],1.18 µM
same,TGI,[15],> 10 µM
same,TGI,[16],> 10 µM
same,TGI,[17],> 10 µM
same,TGI,[18],> 10 µM
same,TGI,[19],> 10 µM
same,TGI,[20],6.78 µM
same,TGI,[21],> 10 µM
same,TGI,[22],9.51 µM
same,TGI,[23],2.72 µM
same,TGI,[24],> 10 µM
same,TGI,[25],> 10 µM
same,TGI,[26],> 10 µM
same,TGI,[27],> 10 µM
same,TGI,[28],> 10 µM
same,TGI,[29],> 10 µM
same,TGI,[30],6 µM
same,TGI,[31],> 10 µM
same,TGI,[32],> 10 µM
same,TGI,[33],> 10 µM
same,TGI,[34],> 10 µM
same,TGI,[35],> 10 µM
same,TGI,[36],> 10 µM
same,TGI,[37],> 10 µM
same,TGI,[38],3.57 µM
same,TGI,[39],> 10 µM
same,TGI,[40],> 10 µM
same,TGI,[41],> 10 µM
same,TGI,[42],> 10 µM
same,TGI,[43],> 10 µM
same,TGI,[44],5.89 µM
same,TGI,[45],> 10 µM
same,TGI,[46],> 10 µM
same,TGI,[47],4.96 µM
same,TGI,[48],> 10 µM
same,TGI,[49],> 10 µM
same,TGI,[50],> 10 µM
same,TGI,[51],9.72 µM
same,TGI,[52],> 10 µM
same,TGI,[53],> 10 µM
same,TGI,[54],> 10 µM
same,TGI,[55],> 10 µM
same,TGI,[56],> 10 µM
same,TGI,[57],> 10 µM
same,TGI,[58],6.12 µM
same,TGI,[59],> 10 µM
COC(=O)C1=C(C)NC(C)=C(C(=O)OC)C1c1ccc(NO)cc1,TGI,[1],28.9 µM
same,TGI,[2],93.8 µM
same,TGI,[3],43.5 µM
same,TGI,[4],25.8 µM
same,TGI,[5],26.5 µM
same,TGI,[6],29.1 µM
same,TGI,[7],> 27.3 µM
same,TGI,[8],29.2 µM
same,TGI,[9],35.8 µM
same,TGI,[10],47.4 µM
same,TGI,[11],35.1 µM
same,TGI,[12],21.8 µM
same,TGI,[13],26.5 µM
same,TGI,[14],> 20.2 µM
same,TGI,[15],32.9 µM
same,TGI,[16],12.7 µM
same,TGI,[17],47.3 µM
same,TGI,[18],29.8 µM
same,TGI,[19],30.9 µM
same,TGI,[20],8.07 µM
same,TGI,[21],31.6 µM
same,TGI,[22],12.9 µM
same,TGI,[23],27.9 µM
same,TGI,[24],25.8 µM
same,TGI,[25],19.2 µM
same,TGI,[26],26.6 µM
same,TGI,[27],28.7 µM
same,TGI,[28],24.7 µM
same,TGI,[29],> 22.4 µM
same,TGI,[30],47.1 µM
same,TGI,[31],49.8 µM
same,TGI,[32],33.9 µM
same,TGI,[33],12.2 µM
same,TGI,[34],48.5 µM
same,TGI,[35],26.7 µM
same,TGI,[36],25 µM
same,TGI,[37],29.8 µM
same,TGI,[38],24.7 µM
same,TGI,[39],26.3 µM
same,TGI,[40],16.4 µM
same,TGI,[41],36 µM
same,TGI,[42],43.1 µM
same,TGI,[43],33.1 µM
same,TGI,[44],29.6 µM
same,TGI,[45],34.2 µM
same,TGI,[46],34.1 µM
same,TGI,[47],30.1 µM
same,TGI,[48],50.3 µM
same,TGI,[49],33.6 µM
same,TGI,[50],> 78.8 µM
same,TGI,[51],45.8 µM
same,TGI,[52],> 20.4 µM
same,TGI,[53],19.8 µM
same,TGI,[54],32.7 µM
same,TGI,[55],30.9 µM
same,TGI,[56],29.9 µM
same,TGI,[57],15.7 µM
same,TGI,[58],26.8 µM
same,TGI,[59],23.5 µM
COC(=O)[C@@]12OC[C@]34[C@H]([C@@H](O)[C@@H]1O)[C@@]1(C)CC(=O)C(OC(C)=O)=C(C)[C@@H]1C[C@H]3OC(=O)[C@H](OC(=O)C=C(C)C)[C@@H]24,TGI,[1],3.19 µM
same,TGI,[2],1.78 µM
same,TGI,[3],4.92 µM
same,TGI,[4],10.8 µM
same,TGI,[5],5.27 µM
same,TGI,[6],10.8 µM
same,TGI,[7],3.83 µM
same,TGI,[8],2.79 µM
same,TGI,[9],6.37 µM
same,TGI,[10],5.38 µM
same,TGI,[11],0.716 µM
same,TGI,[12],2 µM
same,TGI,[13],7.46 µM
same,TGI,[14],1.65 µM
same,TGI,[15],2.86 µM
same,TGI,[16],4.04 µM
same,TGI,[17],3.32 µM
same,TGI,[18],58.3 µM
same,TGI,[19],2.59 µM
same,TGI,[20],9.7 µM
same,TGI,[21],4.18 µM
same,TGI,[22],0.981 µM
same,TGI,[23],2.63 µM
same,TGI,[24],1.2 µM
same,TGI,[25],2.99 µM
same,TGI,[26],5.8 µM
same,TGI,[27],3.45 µM
same,TGI,[28],3.2 µM
same,TGI,[29],4.23 µM
same,TGI,[30],3.94 µM
same,TGI,[31],2.2 µM
same,TGI,[32],1.38 µM
same,TGI,[33],1.49 µM
same,TGI,[34],57.4 µM
same,TGI,[35],1.01 µM
same,TGI,[36],4.05 µM
same,TGI,[37],6.79 µM
same,TGI,[38],2.54 µM
same,TGI,[39],4.01 µM
same,TGI,[40],3.21 µM
same,TGI,[41],3.41 µM
same,TGI,[42],3.05 µM
same,TGI,[43],3 µM
same,TGI,[44],1.82 µM
same,TGI,[45],2.79 µM
same,TGI,[46],2.67 µM
same,TGI,[47],1.33 µM
same,TGI,[48],1.78 µM
same,TGI,[49],4.52 µM
same,TGI,[50],77.8 µM
same,TGI,[51],4.45 µM
same,TGI,[52],2.07 µM
same,TGI,[54],5.93 µM
same,TGI,[55],4.75 µM
same,TGI,[56],3.26 µM
same,TGI,[57],2.28 µM
same,TGI,[58],3.16 µM
same,TGI,[59],14.5 µM
